Assay results published in patent publication US20200297711A1, “PHARMACEUTICAL COMPOSITION COMPRISING FGFR SELECTIVE TYROSINE KINASE INHIBITOR” (priority 2017, published 2020).
Marks after values point to notes of the source that are not given here.

Test: Pharmacokinetics in plasma following single dose and repeated doses of Compound A 1.5 succinate
Type: in vivo, human
Conditions: Compound B
Description: In order to evaluate the PK when administered as a single dose, a single dose of Compound A for each treatment group (at the corresponding dosage for that group) was administered on Day 1. Compound A was administered when fasted, immediately after waking up with at least 10 hours fasting. Taking any meal was prohibited for 2 hours after administration and only drinking water was allowed.
Cycle 1 was started between 8 and 10 days after dosing in Cycle 0 and Compound A was administered continuously once daily. Compound A was administered at least 2 hours after breakfast, and any food intake was prohibited for 1 hour after administration. However, on Day 8 of Cycle 1, Compound A was administered immediately after waking up while the subject was fasted after at least 10 hours of overnight fasting in order to evaluate the PK. Taking any meals was prohibited for 2 hours after administration and only drinking water was allowed.
Plasma concentration profile of Compound A following a single dose and repeated doses of Compound A 1.5 succinate are shown in FIG. 1 and FIG. 2, respectively. The profile shown in FIG. 2 is that at steady state.
The pharmacokinetic parameters of Compound A following the single dose and repeated doses of Compound A 1.5 succinate are shown in the following table. The pharmacokinetic parameters of Compound A following repeated doses of Compound A 1.5 succinate shown below are those at steady state.
The pharmacokinetic parameters of Compound A following the single dose and repeated doses of Compound A 1.5 succinate updated after obtaining the above data are shown in the following table. The pharmacokinetic parameters of Compound A following repeated doses of Compound A 1.5 succinate shown below are those at steady state.
The pharmacokinetic parameters of Compound B following the single dose and repeated doses of Compound A 1.5 succinate are shown in the following table. The pharmacokinetic parameters of Compound B following repeated doses of Compound A 1.5 succinate shown below are those at steady state.

[1] = repeated once-daily doses of Compound A 30 mg, steady state (n = 2)
[2] = repeated once-daily doses of Compound A 60 mg, steady state (n = 2)
[3] = repeated once-daily doses of Compound A 100 mg, steady state (n = 3)
[4] = repeated once-daily doses of Compound A 140 mg, steady state (n = 3)
[5] = repeated once-daily doses of Compound A 180 mg, steady state (n = 3)
[6] = single dose of Compound A 30 mg (n = 2)
[7] = single dose of Compound A 60 mg (n = 3)
[8] = single dose of Compound A 100 mg (n = 3)
[9] = single dose of Compound A 140 mg (n = 3)
[10] = single dose of Compound A 180 mg (n = 3)

CNC(=O)n1ccc2cc(Oc3ccnc(NC(=O)c4ccc(C5CCNCC5)cc4)c3)c(OCCOC)cc21 [Compound B, 6-(2-Methoxyethoxy)-N-methyl-5-((2-(4-(piperidin-4-yl)benzamide)pyridin-4-yl)oxy)-1H-indole-1-carboxamide]
AUC(0-t) [1]: 194 ng·h/mL | Cavg [1]: 7.71 ng/mL | Cmax [1]: 12.4 ng/mL | Cmin [1]: 5.19 ng/mL | tmax, median (minimum − maximum) [1]: 3.49 (1.97-5.00) h | AUC(0-t) [2]: 565 ^a^ h* ng/mL | Cavg [2]: 22.6 ^a ng/mL | Cmax [2]: 44.2 ^a ng/mL | Cmin [2]: 12.3 ^a ng/mL | tmax, median (minimum − maximum) [2]: 2.54 (2.07-3.00) ^a h | AUC(0-t) [3]: 805 ± 195 ng·h/mL | Cavg [3]: 32.3 ± 7.79 ng/mL | Cmax [3]: 55.4 ± 14.5 ng/mL | Cmin [3]: 17.4 ± 7.37 ng/mL | tmax, median (minimum − maximum) [3]: 5.00 (4.98-5.05) h | AUC(0-t) [4]: 1620 ± 460 ng·h/mL | Cavg [4]: 66.1 ± 18.8 ng/mL | Cmax [4]: 106 ± 51.8 ng/mL | Cmin [4]: 41.5 ± 10.9 ng/mL | tmax, median (minimum − maximum) [4]: 5.00 (2.98-5.08) h | AUC(0-t) [5]: 1500 ± 686 ng·h/mL | Cavg [5]: 60.4 ± 27.7 ng/mL | Cmax [5]: 98.0 ± 39.5 ng/mL | Cmin [5]: 32.8 ± 13.0 ng/mL | tmax, median (minimum − maximum) [5]: 5.00 (3.05-5.08) h | AUC(0-inf) [6]: 297 ng·h/mL | AUC(0-t) [6]: 274 ng·h/mL | Cmax [6]: 19.2 ng/mL | t1/2 [6]: 21.5 h | tmax, median (minimum − maximum) [6]: 3.59 (2.02-5.15) h | AUC(0-inf) [7]: 687 ± 354 ng·h/mL | AUC(0-t) [7]: 652 ± 352 ng·h/mL | Cmax [7]: 35.1 ± 19.1 ng/mL | t1/2 [7]: 26.1 ± 10.2 h | tmax, median (minimum − maximum) [7]: 4.98 (3.00-5.07) h | AUC(0-inf) [8]: 699 ± 163 ng·h/mL | AUC(0-t) [8]: 647 ± 153 ng·h/mL | Cmax [8]: 38.4 ± 4.36 ng/mL | t1/2 [8]: 20.0 ± 0.794 h | tmax, median (minimum − maximum) [8]: 4.95 (2.97-5.10) h | AUC(0-inf) [9]: 1410 ± 216 ng·h/mL | AUC(0-t) [9]: 1350 ± 233 ng·h/mL | Cmax [9]: 63.8 ± 36.1 ng/mL | t1/2 [9]: 40.50 ± 6.46 h | tmax, median (minimum − maximum) [9]: 5.00 (4.88-5.08) h | AUC(0-inf) [10]: 1370 ± 703 ng·h/mL | AUC(0-t) [10]: 1320 ± 693 ng·h/mL | Cmax [10]: 50.7 ± 20.7 ng/mL | t1/2 [10]: 39.9 ± 6.27 h | tmax, median (minimum − maximum) [10]: 5.00 (3.00-5.02) h
